# Laboratory results as given in patent publication US11274097B2, “2-(het)aryl-substituted condensed bicyclic heterocycle derivatives as pest control agents” (BAYER CROPSCIENCE AKTIENGESELLSCHAFT, priority 2014, dated 2022).
# Like-named read-outs stand apart in the source and are kept apart here.
# Assay: log P by HPLC on a reversed-phase column (C 18), EEC Directive 79/831 Annex V.A8
# Format: physicochemical
# Settings: for LOGP_NEUTRAL: pH 7.8, 0.001 molar aqueous ammonium hydrogencarbonate/acetonitrile; for chromatographic logP: reversed-phase HPLC column (C 18)
# Description: The log P values are measured according to EEC Directive 79/831 Annex V.A8 by HPLC (high-performance liquid chromatography) on a reversed-phase column (C 18). Temperature: 55° C. The LC-MS determination in the acidic range is effected at pH 2.7 using 0.1% aqueous formic acid and acetonitrile (contains 0.1% formic acid) as eluents, linear gradient from 10% acetonitrile to 95% acetonitrile. Called log P (HCOOH) in the table. LC-MS determination in the neutral range is effected at pH 7.8 with 0.001 molar aqueous ammonium hydrogencarbonate solution and acetonitrile as eluents; linear gradient from 10% acetonitrile to 95% acetonitrile. Called log P (neutral) in the table. Calibration is effected with unbranched alkan-2-ones (having 3 to 16 carbon atoms) with known log P values (log P values determined on the basis of the retention times by linear interpolation between two successive alkanone s).
# [1] = acidic range, pH 2.7, 0.1% aqueous formic acid/acetonitrile, 55° C.
# [2] = neutral range, pH 7.8, read-out: log P (neutral)
SMILES,LOGP_HCOOH [1],"LOGP_NEUTRAL (neutral range, 55° C.)",chromatographic logP [2],"chromatographic logP (acidic range, pH 2.7, 0.1% aqueous formic acid/acetonitrile, 55° C., read-out: LOGP_HCOOH)"
CCSc1cc(C(F)(F)F)cnc1-c1nc2cc(-n3cc(C(F)(F)F)cn3)ncc2n1C [Example I-65],4.37,4.31,–,–
CCSc1cc(C(F)(F)F)cnc1-c1nc2cc(-n3ccc(C(F)(F)F)n3)ncc2n1C [Example I-69],4.37,4.32,–,–
Cn1c(-c2ccccc2S(=O)(=O)C2COC2)nc2cc(C(F)(F)F)ncc21 [Example I-27],1.87,1.84,–,–
"CNc1cnc(C(F)(F)F)cc1NC(=O)c1ncc(C(F)(F)F)cc1Cl [VIII-01, 3-chloro-N-[5-(methylamino)-2-(trifluoromethyl)pyridin-4-yl]-5-(trifluoromethyl)pyridine-2-carboxamide]",–,–,3.09,–
"CCSc1cc(C(F)(F)F)cnc1-c1nc2cc(-n3cnc(C(F)(F)F)c3)ncc2n1C [Example I-74, 2-[3-ethylsulphanyl-5-(trifluoromethyl)-2-pyridyl]-3-methyl-6-[4-(trifluoromethyl)-imidazol-1-yl]imidazo[4,5-c]pyridine]",–,3.36,3.36,3.49
Cn1c(-c2ncc(C(F)(F)F)cc2SCCO)nc2cc(C(F)(F)F)ncc21 [Example I-59],2.41,2.31,–,–
"CCSc1cc(C(F)(F)F)cnc1-c1nc2cc(-c3ccc(C(F)(F)F)cc3)ncc2n1C [Example I-64, 2-[3-ethylsulphanyl-5-(trifluoromethyl)-2-pyridyl]-3-methyl-6-[4-(trifluoromethyl)-phenyl]imidazo[4,5-c]pyridine]",3.93,3.95,3.95,–
CC(C)[S+]([O-])c1cc(C(F)(F)F)cnc1-c1nc2cc(C(F)(F)F)ncc2n1C (centres unmarked) [Example I-8],3.54,3.46,–,–
"CCSc1ccccc1-c1nc2cc(C(F)(F)F)ncc2o1 [Example I-35, 2-[2-(Ethylsulphanyl)phenyl]-6-(trifluoromethyl)[1,3]oxazolo[5,4-c]pyridine]",4.03,4.07,4.07,–
"CCSc1ccccc1C(=O)Nc1cc(C(F)(F)F)ncc1O [VIII-02, 2-(ethylsulphanyl)-N-[5-hydroxy-2-(trifluoromethyl)pyridin-4-yl]benzamide]",–,–,1.59,–
COc1ccc(SC)c(-c2nc3cc(C(F)(F)F)ncc3n2C)n1 [Example I-67],2.75,2.70,–,–
CCSc1ccccc1-c1nc2nc(C(F)(F)F)ncc2o1 [Example I-9],3.66,3.64,–,–
CCCSc1ccc(OC)nc1-c1nc2cc(C(F)(F)F)ncc2n1C [Example I-66],3.50,3.42,–,–
CSc1cc(Cl)ccc1-c1nc2nc(C(F)(F)F)ncc2n1C [Example I-6],2.75,2.74,–,–

# Further lines, results first:
LOGP_HCOOH [1],"LOGP_NEUTRAL (neutral range, 55° C.)",chromatographic logP [2],"chromatographic logP (acidic range, pH 2.7, 0.1% aqueous formic acid/acetonitrile, 55° C., read-out: LOGP_HCOOH)",SMILES
2.93,–,–,–,CCCS(=O)(=O)c1ccc(OC)nc1-c1nc2cc(C(F)(F)F)ncc2n1C [Example I-71]
2.12,2.11,–,–,CC[S+]([O-])c1cccnc1-c1nc2cc(C(F)(F)F)ncc2n1C (centres unmarked) [Example I-33]
2.89,2.82,–,–,Cn1c(-c2ncc(C(F)(F)F)cc2S(=O)(=O)CCF)nc2cc(C(F)(F)F)ncc21 [Example I-57]
1.95,1.92,–,–,CCS(=O)(=O)c1cccnc1-c1nc2cc(C(F)(F)F)ncc2n1C [Example I-15]
3.90,3.81,–,–,CCS(=O)(=O)c1cc(C(F)(F)F)cnc1-c1nc2cc(-n3ccc(C(F)(F)F)n3)ncc2n1C [Example I-77]
2.08,2.05,–,–,Cn1c(-c2ccc(F)cc2S(C)(=O)=O)nc2cc(C(F)(F)F)ncc21 [Example I-20]
–,2.19,–,–,Cn1c(-c2ncc(C(F)(F)F)cc2S(=O)(=O)CCO)nc2cc(C(F)(F)F)ncc21 [Example I-58]
